ChEMBL document CHEMBL1201862, “PubChem BioAssay data set” (2004)
Calls of active or inactive are those of the source. Cut-off read from the data, not from the text of the source, for most assays here: actives have a measured EC50 and inactives only a lower limit.

How the values were obtained:
Cytochrome P450 2C9 = Cytochrome P450 2C9 (Homo sapiens, UniProt P11712)
Cytochrome P450 2D6 = Cytochrome P450 2D6 (Homo sapiens, UniProt P10635);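 note: CYP2D6 member of a cytochrome P450 panel assay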
[1] = cytotoxicity toward NIH3T3 fibroblasts, dose response, counter-screen, cell-based, ATP luminescence, mouse fibroblasts (AID 2010); type: functional;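 note: cells exposed to compound for about 90 hours before reading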
[2] = inhibitors of intracellular T. cruzi replication, confirmation, NIH3T3 host cells, beta-gal luminescence (AID 2044); type: functional, cell-based;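 note: intracellular parasites grown in NIH/3T3 mouse fibroblasts as host cells; luminescent beta-galactosidase reporter signal from transgenic T. cruzi replicating inside host cells; inhibitors lower the luminescence signal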
Cytochrome P450 3A4 = Cytochrome P450 3A4 (Homo sapiens, UniProt P08684);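 note: CYP3A4 tested as one member of a cytochrome P450 panel screen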
Sequence of Cytochrome P450 3A4 (P08684 whole entry): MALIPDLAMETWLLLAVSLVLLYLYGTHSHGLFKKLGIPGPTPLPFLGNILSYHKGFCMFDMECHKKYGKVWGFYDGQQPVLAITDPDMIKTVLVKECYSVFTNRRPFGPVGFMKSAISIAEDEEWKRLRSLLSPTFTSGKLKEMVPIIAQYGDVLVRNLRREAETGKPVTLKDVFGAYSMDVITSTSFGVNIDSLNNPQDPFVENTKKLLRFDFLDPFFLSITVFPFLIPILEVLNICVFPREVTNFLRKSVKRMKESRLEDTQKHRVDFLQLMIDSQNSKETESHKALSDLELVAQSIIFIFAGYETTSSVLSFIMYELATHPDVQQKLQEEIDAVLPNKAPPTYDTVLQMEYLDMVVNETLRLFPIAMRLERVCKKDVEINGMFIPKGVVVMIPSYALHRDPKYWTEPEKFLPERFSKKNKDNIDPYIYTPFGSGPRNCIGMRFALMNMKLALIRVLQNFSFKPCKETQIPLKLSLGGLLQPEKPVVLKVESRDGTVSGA

Streptokinase A = biological target: T1, Streptokinase A (Streptococcus pyogenes serotype M1, UniProt P10520); test: S. pyogenes streptokinase expression inhibitors, potency, dose response, plasminogen activation absorbance, OD405 (AID 1914); type: functional, Streptococcus pyogenes M1 GAS;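 note: secreted streptokinase activity via plasminogen activation per viability signal from cell pellet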
T1 sequence (P10520 whole entry): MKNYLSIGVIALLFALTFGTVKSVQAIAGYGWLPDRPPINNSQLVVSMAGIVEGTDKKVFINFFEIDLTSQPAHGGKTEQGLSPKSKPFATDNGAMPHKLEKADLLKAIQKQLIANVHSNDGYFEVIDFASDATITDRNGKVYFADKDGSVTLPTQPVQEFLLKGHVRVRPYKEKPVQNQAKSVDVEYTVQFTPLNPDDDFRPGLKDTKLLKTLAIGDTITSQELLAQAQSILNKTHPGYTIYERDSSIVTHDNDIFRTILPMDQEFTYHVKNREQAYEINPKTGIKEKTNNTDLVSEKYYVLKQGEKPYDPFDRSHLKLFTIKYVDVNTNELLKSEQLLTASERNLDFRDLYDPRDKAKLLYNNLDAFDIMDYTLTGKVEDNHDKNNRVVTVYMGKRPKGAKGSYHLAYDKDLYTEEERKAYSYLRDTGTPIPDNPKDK

Streptococcus = test: Group A Streptococcus viability loss, dose response, counter-screen for streptokinase expression inhibitor project, luminescence, BacTiterGlo (AID 1915); type: functional, organism-based;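 note: potency for reduction of bacterial viability or growth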
[3] = system: Streptococcus sp. 'group A'; test: growth inhibition of control SK(-) GAS strain, dose response, counter-screen for streptokinase expression inhibitor project, luminescence, kanamycin, BacTiterGlo, confirmation (AID 1900); type: functional, organism-based

Sequence of Cytochrome P450 2D6 (P10635 whole entry): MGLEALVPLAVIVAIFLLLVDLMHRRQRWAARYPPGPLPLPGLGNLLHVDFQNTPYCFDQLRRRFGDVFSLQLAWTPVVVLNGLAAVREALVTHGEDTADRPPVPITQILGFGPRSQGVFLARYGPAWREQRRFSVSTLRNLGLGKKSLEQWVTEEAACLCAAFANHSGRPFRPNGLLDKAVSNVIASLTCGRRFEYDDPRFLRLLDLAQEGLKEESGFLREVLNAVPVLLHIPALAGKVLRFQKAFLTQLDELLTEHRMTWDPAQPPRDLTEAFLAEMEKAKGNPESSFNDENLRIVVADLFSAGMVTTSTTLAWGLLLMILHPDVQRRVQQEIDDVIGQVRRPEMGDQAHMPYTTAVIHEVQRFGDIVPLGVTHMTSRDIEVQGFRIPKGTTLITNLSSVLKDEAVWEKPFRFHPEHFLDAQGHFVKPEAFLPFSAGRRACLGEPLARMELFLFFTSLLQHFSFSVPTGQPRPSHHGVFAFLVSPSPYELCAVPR
Sequence of Cytochrome P450 2C9 (P11712 whole entry): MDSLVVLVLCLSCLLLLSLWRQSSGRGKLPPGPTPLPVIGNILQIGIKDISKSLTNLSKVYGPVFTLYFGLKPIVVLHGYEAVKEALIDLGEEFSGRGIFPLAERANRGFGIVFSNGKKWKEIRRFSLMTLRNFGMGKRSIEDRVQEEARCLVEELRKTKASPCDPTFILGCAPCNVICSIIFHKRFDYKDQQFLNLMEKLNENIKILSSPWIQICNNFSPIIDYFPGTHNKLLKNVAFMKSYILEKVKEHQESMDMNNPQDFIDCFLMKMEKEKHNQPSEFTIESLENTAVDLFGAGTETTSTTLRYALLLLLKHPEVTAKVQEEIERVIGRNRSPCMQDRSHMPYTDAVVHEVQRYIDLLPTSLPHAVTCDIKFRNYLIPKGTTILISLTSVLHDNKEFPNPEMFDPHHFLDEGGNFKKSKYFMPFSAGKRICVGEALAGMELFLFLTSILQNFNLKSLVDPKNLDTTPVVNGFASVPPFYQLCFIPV

## COc1ccc2cc3cc(C(=O)NCCN4CCN(c5ccccc5F)CC4)oc3nc2c1
Cytochrome P450 2C9
  AC50: 22.4 µM (inconclusive)
Cytochrome P450 2D6
  AC50: 31.6 µM (inconclusive)

## CN(C)c1ccc(C2SCCN2C(=O)c2ccc([N+](=O)[O-])cc2)cc1 (centres undefined)
[1]
  EC50: > 30 µM (not active)
[2]
  EC50: 0.874 µM (active)

## COc1cnc(-c2ccccc2)nc1Oc1cccc(C)c1
Cytochrome P450 2C9
  AC50: 39.8 µM (inconclusive)

## Cc1cccc(C)c1NC(=O)C(NC=O)c1ccccc1Cl (centres undefined)
Cytochrome P450 2C9
  AC50: 12.6 µM (inconclusive)

## CCn1cc([N+](=O)[O-])c(C(=O)N2N=C(c3ccc4ccccc4c3)CC2c2cc(Br)ccc2O)n1 (centres undefined)
[1]
  EC50: > 60 µM (inconclusive)
[2]
  EC50: 2.19 µM (active)

## CC(C)c1csc(CN2CCC(CO)(Cc3ccccc3)CC2)n1
[1]
  EC50: > 60 µM (not active)
[2]
  EC50: 0.891 µM (active)

## c1ccc(N2CC[C@@]3(CCCNC3)C2)nc1
Cytochrome P450 3A4
  AC50: 15.8 µM (inconclusive)

## CC1CCC(C(C)C)C(OC(=O)C[n+]2cc(-c3ccc(Cl)cc3)n3c2CCC3)C1 (centres undefined)
[1]
  EC50: > 60 µM (not active)
[2]
  EC50: 0.144 µM (active)

## COc1cccc(Nc2ncc3ncc(=O)n(C4CC4)c3n2)c1
Cytochrome P450 2C9
  AC50: 15.8 µM (inconclusive)
Cytochrome P450 3A4
  AC50: 6.31 µM (inconclusive)

## COc1ncc2nc(C)c(=O)n(CCc3ccccc3)c2n1
Cytochrome P450 2C9
  AC50: 20 µM (inconclusive)
Cytochrome P450 3A4
  AC50: 15.8 µM (inconclusive)

## COc1ccccc1N1CC(C(=O)Nc2nnc(SCC(=O)NCC3CCCO3)s2)CC1=O (centres undefined)
Streptokinase A
  EC50: > 150 µM (not active)
Streptococcus
  EC50: > 150 µM (not active)
[3]
  EC50: > 150 µM (not active)

## Cc1sc(NC(=O)Cc2ccc3c(c2)OCO3)nc1-c1ccc2c(c1)CCN2C(=O)c1ccccc1F
[1]
  EC50: > 60 µM (not active)
[2]
  EC50: 1.69 µM (active)

## O=C1C=C(NC(=O)Nc2ccc(Cl)c(Cl)c2)CCC1
Streptokinase A
  EC50: > 150 µM (not active)
Streptococcus
  EC50: > 150 µM (not active)
[3]
  EC50: 18 µM (active)

## COc1ccccc1CN1CCC2(CC1)CCN(C(=O)c1csnn1)CC2
Cytochrome P450 3A4
  AC50: 31.6 µM (inconclusive)

## CCOC(=O)c1sc2ncnc(N3CCN(c4ccc(OC)cc4)CC3)c2c1C
Streptokinase A
  EC50: > 150 µM (not active)
Streptococcus
  EC50: > 150 µM (not active)
[3]
  EC50: 7.62 µM (active)

## O=C(c1ccco1)N1CCC[C@@]2(CCN(Cc3ccncc3)C2)C1
Cytochrome P450 3A4
  AC50: 15.8 µM (inconclusive)

## CCc1ccc(-c2cc(C)no2)cc1S(=O)(=O)Nc1cccc(CN2CCCC2)c1
Streptokinase A
  EC50: > 150 µM (not active)
Streptococcus
  EC50: > 150 µM (not active)
[3]
  EC50: > 150 µM (not active)

## O=c1c([N+](=O)[O-])cc(C(F)(F)F)cn1Cc1c(Cl)cccc1Cl
Cytochrome P450 2C9
  AC50: 22.4 µM (inconclusive)
Cytochrome P450 2D6
  AC50: 25.1 µM (inconclusive)

## COc1ccc([C@@H](Nc2ncccn2)c2cc3c(cc2O)OCO3)cc1
Cytochrome P450 2D6
  AC50: 6.31 µM (inconclusive)

## Cc1ccc(Sc2ccc(CN3CCCC3)cc2[N+](=O)[O-])cc1
[1]
  EC50: > 60 µM (not active)
[2]
  EC50: 0.206 µM (active)

## Cc1ccc2ncc([N+](=O)[O-])n2c1
Cytochrome P450 2C9
  AC50: 0.708 µM (inconclusive)

## O=C(CCCCn1c(=O)c2ccccc2n(CC(=O)NC2CCCC2)c1=O)NC1CCCC1
Cytochrome P450 2D6
  AC50: 14.1 µM (inconclusive)

## C/C(=N\NC(=O)COc1ccc(C)cc1C(C)C)c1cc2ccccc2o1
Streptokinase A
  EC50: 30.5 µM (active)
Streptococcus
  EC50: 24.1 µM (active)
[3]
  EC50: 15.5 µM (active)

## O=C1C(O)=C(C(C2=C(O)C(=O)c3ccccc3C2=O)c2ccc(Cl)cc2)C(=O)c2ccccc21
Cytochrome P450 2C9
  AC50: 3.16 µM (inconclusive)
Cytochrome P450 3A4
  AC50: 3.16 µM (inconclusive)
Cytochrome P450 2D6
  AC50: 2.51 µM (inconclusive)

## Cc1ccc(/C(=N\O)c2oc3c(C)c4oc(=O)cc(C)c4cc3c2C)cc1
[1]
  EC50: > 60 µM (not active)
[2]
  EC50: 1.23 µM (active)

## COC(=O)c1sc(N/N=C/c2ccc(C(C)C)cc2)nc1C
[1]
  EC50: > 60 µM (not active)
[2]
  EC50: 2.06 µM (active)

## C/C(=N/NS(=O)(=O)c1ccc(C)cc1)c1cccc(NC(=O)c2cccc(Cl)c2)c1
Cytochrome P450 2D6
  AC50: 4.47 µM (inconclusive)

## CCOc1ccc(-n2c(C)cc(/C=N/N(C)C)c2C)cc1
[1]
  EC50: > 30 µM (not active)
[2]
  EC50: 0.843 µM (active)

## O=S(=O)(N/N=C\C=C\c1ccccc1)c1ccc(Br)cc1
Cytochrome P450 2D6
  AC50: 22.4 µM (inconclusive)
